Experimental findings from patent US10501449B2 (priority 2018, dated 2019) are described below.

One may read the IC50 as the point on the concentration scale where inhibition reaches its midpoint.

For one series, the target named is hERG channels (Homo sapiens (Human), UniProt Q12809). The series is described as follows: hERG Manual Patch Clamp Assay. The series is classed as cell-based. Conditions: human, HEK 293 cells stably expressing hERG channels, pH 7.4, 1 uM, read-out: hERG EP % Inh @ 1 uM. Background: hERG is a cardiac potassium channel; its block is linked to QT prolongation.
A further series addresses hROMK (human Kir1.1) (Homo sapiens (Human), UniProt P48048). Description: cell-based. Conditions: CHO T-Rex hROMK stable cell line; thallium flux; 10-point concentration response curve; read-out: Human ROMK Th Flux IC50.

SMILES strings stand for the structures.

hROMK (human Kir1.1), sequence (P48048 whole entry): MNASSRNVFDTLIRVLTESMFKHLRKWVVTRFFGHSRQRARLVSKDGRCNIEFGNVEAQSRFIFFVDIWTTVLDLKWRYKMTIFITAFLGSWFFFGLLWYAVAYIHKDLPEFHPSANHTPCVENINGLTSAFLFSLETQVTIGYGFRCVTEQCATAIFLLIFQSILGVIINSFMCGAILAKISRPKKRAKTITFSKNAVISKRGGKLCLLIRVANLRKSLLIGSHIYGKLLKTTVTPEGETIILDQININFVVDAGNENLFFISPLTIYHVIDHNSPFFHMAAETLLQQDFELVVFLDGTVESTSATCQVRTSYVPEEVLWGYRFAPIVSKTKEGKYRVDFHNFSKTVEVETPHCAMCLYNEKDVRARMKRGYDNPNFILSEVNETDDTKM
hERG channels, sequence (Q12809 whole entry): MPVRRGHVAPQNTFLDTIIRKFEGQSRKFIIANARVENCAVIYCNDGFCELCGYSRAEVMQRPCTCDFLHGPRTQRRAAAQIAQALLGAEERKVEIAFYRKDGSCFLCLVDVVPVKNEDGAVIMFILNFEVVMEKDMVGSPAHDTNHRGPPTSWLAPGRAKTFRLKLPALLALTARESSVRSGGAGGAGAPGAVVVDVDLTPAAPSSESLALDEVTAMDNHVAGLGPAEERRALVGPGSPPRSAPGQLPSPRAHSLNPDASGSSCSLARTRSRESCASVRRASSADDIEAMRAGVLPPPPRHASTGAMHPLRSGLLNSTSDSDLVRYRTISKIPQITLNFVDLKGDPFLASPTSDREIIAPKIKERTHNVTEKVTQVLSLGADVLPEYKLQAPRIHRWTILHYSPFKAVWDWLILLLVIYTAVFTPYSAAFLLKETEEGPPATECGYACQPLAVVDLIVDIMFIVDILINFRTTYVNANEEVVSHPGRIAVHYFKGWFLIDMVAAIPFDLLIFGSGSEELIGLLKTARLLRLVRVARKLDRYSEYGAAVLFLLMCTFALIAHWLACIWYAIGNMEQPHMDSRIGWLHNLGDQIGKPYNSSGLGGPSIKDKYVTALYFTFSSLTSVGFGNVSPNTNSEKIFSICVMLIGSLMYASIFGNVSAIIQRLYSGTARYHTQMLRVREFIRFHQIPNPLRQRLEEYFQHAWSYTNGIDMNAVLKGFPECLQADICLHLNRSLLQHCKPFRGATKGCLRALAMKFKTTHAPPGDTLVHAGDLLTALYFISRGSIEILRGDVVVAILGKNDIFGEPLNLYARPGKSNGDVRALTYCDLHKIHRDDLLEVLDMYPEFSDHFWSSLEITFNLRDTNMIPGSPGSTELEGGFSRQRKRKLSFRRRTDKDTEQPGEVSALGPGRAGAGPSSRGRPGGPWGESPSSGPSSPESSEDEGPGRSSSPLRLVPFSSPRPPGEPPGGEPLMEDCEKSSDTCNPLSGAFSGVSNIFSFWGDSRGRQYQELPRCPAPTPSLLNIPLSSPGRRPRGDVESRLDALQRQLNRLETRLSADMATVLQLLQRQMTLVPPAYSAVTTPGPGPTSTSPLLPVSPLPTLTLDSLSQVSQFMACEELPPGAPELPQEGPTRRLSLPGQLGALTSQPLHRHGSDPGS
Protocol for hERG channels: hERG electrophysiology assay: The experimental compounds were assessed for hERG activity on HEK 293 cells stably expressing hERG channels using patch clamp technique. Coverslips plated with hERG expressing cells were placed in the experimental chamber and were perfused with a solution composed of (in mM): 140 NaCl, 4 KCl, 1.8 CaCl2, 1 MgCl2, 10 Glucose, 10 HEPES (pH 7.4, NaOH) at room temperature. Borosilicate patch pipettes had tip resistances of 2-4 Mohms when filled with an internal solution containing: 130 KCl, 1 MgCl2, 1 CaCl2, 10 EGTA, 10 HEPES, 5 ATP-K2 (pH 7.2, KOH). The cells were clamped at −80 mV in whole cell configuration using an Axopatch 200B (Axon instruments, Union City, Calif.) patch clamp amplifier controlled by pClamp (Axon instruments) software. Upon formation of a gigaseal, the following voltage protocol was repeatedly (0.05 Hz) applied to record tail currents: depolarization step from −80 mV to +20 mV for 2 seconds followed by a hyperpolarization step to −65 mV (3 seconds) to elicit tail currents. Compounds were applied after stabilization of tail current. First, tail currents were recorded in presence of extracellular solution alone (control) and subsequently, in extracellular solution containing increasing compound concentrations. Each compound concentration was applied for 2-5 minutes. The percentage inhibition at each concentration was calculated as reduction in peak tail current with respect to the peak tail current recorded in the presence of control solution. Data analysis was performed in a custom made template. The percent inhibitions at different concentrations were plotted to obtain a concentration response curve, which was subsequently fitted with a four parameter equation to calculate hERG IC50 value.

Consider `Cc1cc(-n2cc(CN3CCN[C@H](c4ccc5c(c4C)COC5=O)C3)c(C3CC3)n2)ncc1C#N` [Example 237-I, (R)-6-(3-cyclopropyl-4-((3-(4-methyl-1-oxo-1,3-dihydroisobenzofuran-5-yl)piperazin-1-yl)methyl)-1H-pyrazol-1-yl)-4-methylnicotinonitrile], for which the inhibition at 1 µM on hERG channels was determined as 37%. In addition, at hROMK (human Kir1.1), the IC50 turned out to be 69 nM.
Take `Cc1cc(-n2cc(CN3CCN[C@H](c4ccc5c(c4)COC5=O)C3)cn2)ncc1C#N` [Example 239-I, (R)-4-methyl-6-(4-((3-(1-oxo-1,3-dihydroisobenzofuran-5-yl)piperazin-1-yl)methyl)-1H-pyrazol-1-yl)nicotinonitrile]: the inhibition at 1 µM at hERG channels turned out to be 18%. The IC50 on hROMK (human Kir1.1) was determined as 63 nM.
The like results for `Cc1nn(-c2ccc(CN3CCN[C@H](c4ccc5c(c4C)COC5=O)C3)nc2)cc1C#N` [Example 241-I, (R)-3-methyl-1-(6-((3-(4-methyl-1-oxo-1,3-dihydroisobenzofuran-5-yl)piperazin-1-yl)methyl)pyridin-3-yl)-1H-pyrazole-4-carbonitrile] were, in that order, 18% and 41 nM.
Taken in the same sequence, the figures for `Cc1cn(-c2ccc(CN3CCN[C@H](c4ccc5c(c4C)COC5=O)C3)cn2)nc1C#N` [Example 242-I, (R)-4-methyl-1-(5-((3-(4-methyl-1-oxo-1,3-dihydroisobenzofuran-5-yl)piperazin-1-yl)methyl)pyridin-2-yl)-1H-pyrazole-3-carbonitrile] were 36% and 10 nM.
`Cc1cn(-c2ncc(CN3CCN[C@H](c4ccc5c(c4C)COC5=O)C3)cn2)nc1C#N` [Example 243-I, (R)-4-methyl-1-(5-((3-(4-methyl-1-oxo-1,3-dihydroisobenzofuran-5-yl)piperazin-1-yl)methyl)pyrimidin-2-yl)-1H-pyrazole-3-carbonitrile]: the inhibition at 1 µM on hERG channels stood at 9.8%. The IC50 at hROMK (human Kir1.1) worked out at 13 nM.
Turning to `Cc1cc(-n2cc(CN3CC[C@@H](O)[C@H](c4ccc5c(c4C)COC5=O)C3)c(C(F)F)n2)ncc1C#N` [Example 245-I, 6-(3-(difluoromethyl)-4-(((3R,4R)-4-hydroxy-3-(4-methyl-1-oxo-1,3-dihydroisobenzofuran-5-yl)piperidin-1-yl)methyl)-1H-pyrazol-1-yl)-4-methylnicotinonitrile], at hERG channels, the inhibition at 1 µM was 17%. Also, the IC50 on hROMK (human Kir1.1) amounted to 18 nM.
The like results for `Cc1c([C@@H]2CN(Cc3cnn(-c4cccc(N5CCOC5=O)n4)c3)C[C@H](C)N2)ccc2c1COC2=O` [Example 249-I, 3-(6-(4-(((3S,5R)-3-methyl-5-(4-methyl-1-oxo-1,3-dihydroisobenzofuran-5-yl)piperazin-1-yl)methyl)-1H-pyrazol-1-yl)pyridin-2-yl)oxazolidin-2-one] were, in that order, 9.1% and 120 nM.
Taken in the same sequence, the figures for `Cc1cc(-n2cc(CN3CC[C@@H](O)[C@H](c4ccc5c(c4C)COC5=O)C3)n(C)c2=O)ncc1C#N` [Example 250-I, 6-(4-(((3R,4R)-4-hydroxy-3-(4-methyl-1-oxo-1,3-dihydroisobenzofuran-5-yl)piperidin-1-yl)methyl)-3-methyl-2-oxo-2,3-dihydro-1H-imidazol-1-yl)-4-methylnicotinonitrile] were 20% and 27 nM.
In the case of `Cc1cc(N2CCOC2=O)cc(-n2cc(CN3C[C@@H](c4ccc5c(c4C)COC5=O)N[C@@H](C)C3)cn2)n1` [Example 251-I, 3-(2-methyl-6-(4-(((3S,5R)-3-methyl-5-(4-methyl-1-oxo-1,3-dihydroisobenzofuran-5-yl)piperazin-1-yl)methyl)-1H-pyrazol-1-yl)pyridin-4-yl)oxazolidin-2-one], at hERG channels, the inhibition at 1 µM came out at 7.6%. Also, the IC50 on hROMK (human Kir1.1) was 61 nM.
Take `Cc1c([C@@H]2CN(Cc3cnn(-c4cccc(N(C)S(C)(=O)=O)n4)c3)C[C@H](C)N2)ccc2c1COC2=O` [Example 252-I, N-methyl-N-(6-(4-(((3S,5R)-3-methyl-5-(4-methyl-1-oxo-1,3-dihydroisobenzofuran-5-yl)piperazin-1-yl)methyl)-1H-pyrazol-1-yl)pyridin-2-yl)methanesulfonamide]: the inhibition at 1 µM on hERG channels worked out at 8.8%. The IC50 at hROMK (human Kir1.1) was found to be 72 nM.
The like results for `Cc1cc(-c2nc(CN3C[C@@H](c4ccc5c(c4C)COC5=O)N[C@@H](C)C3)no2)ncc1C#N` [Example 259-I, 4-methyl-6-(3-(((3S,5R)-3-methyl-5-(4-methyl-1-oxo-1,3-dihydroisobenzofuran-5-yl)piperazin-1-yl)methyl)-1,2,4-oxadiazol-5-yl)nicotinonitrile] were, in that order, 8.6% and 53 nM.
Regarding `Cc1cc(-n2nnc(CN3C[C@@H](c4ccc5c(c4C)COC5=O)N[C@@H](C)C3)n2)ccc1C#N` [Example 265-I, 2-methyl-4-(5-(((3S,5R)-3-methyl-5-(4-methyl-1-oxo-1,3-dihydroisobenzofuran-5-yl)piperazin-1-yl)methyl)-2H-tetrazol-2-yl)benzonitrile], the inhibition at 1 µM on hERG channels was 20%. Also, on hROMK (human Kir1.1), the IC50 came out at 22 nM.
Taken in the same sequence, the figures for `Cc1cc(-n2cc(CN3C[C@@H](c4ccc5c(c4C)COC5=O)N[C@@H](C)C3)n(C)c2=O)ccn1` [Example 266-I, 3-methyl-4-(((3S,5R)-3-methyl-5-(4-methyl-1-oxo-1,3-dihydroisobenzofuran-5-yl)piperazin-1-yl)methyl)-1-(2-methylpyridin-4-yl)-1,3-dihydro-2H-imidazol-2-one] were 3.1% and 36 nM.
The like results for `COc1cc(-c2cc(CN3C[C@@H](c4ccc5c(c4C)COC5=O)N[C@@H](C)C3)on2)ncc1C#N` [Example 269-I, 4-methoxy-6-(5-(((3S,5R)-3-methyl-5-(4-methyl-1-oxo-1,3-dihydroisobenzofuran-5-yl)piperazin-1-yl)methyl)isoxazol-3-yl)nicotinonitrile] were, in that order, 9.5% and 24 nM.
On to `COc1cc(-n2nnc(CN3CC[C@@H](O)[C@H](c4ccc5c(c4C)COC5=O)C3)n2)ccc1C#N` [Example 272-I, 4-(5-(((3R,4R)-4-hydroxy-3-(4-methyl-1-oxo-1,3-dihydroisobenzofuran-5-yl)piperidin-1-yl)methyl)-2H-tetrazol-2-yl)-2-methoxybenzonitrile], for which, on hERG channels, the inhibition at 1 µM amounted to 5.2%. The 50% inhibitory concentration (IC50) at hROMK (human Kir1.1) worked out at 65 nM.
As for `COc1cc(N2CC(CN3C[C@@H](c4ccc5c(c4C)COC5=O)N[C@@H](C)C3)N(C)C2=O)ncc1C#N` (stereo partly drawn) [Example 274-I, 4-methoxy-6-(3-methyl-4-(((3S,5R)-3-methyl-5-(4-methyl-1-oxo-1,3-dihydroisobenzofuran-5-yl)piperazin-1-yl)methyl)-2-oxoimidazolidin-1-yl)nicotinonitrile], at hERG channels, the inhibition at 1 µM was determined as 43%. Further, on hROMK (human Kir1.1), the IC50 stood at 58 nM.
As to `COc1cc(-n2cc(CN3C[C@@H](c4ccc5c(c4C)COC5=O)N[C@@H](C)C3)n(C)c2=O)ccn1` [Example 275-I, 1-(2-methoxypyridin-4-yl)-3-methyl-4-(((3S,5R)-3-methyl-5-(4-methyl-1-oxo-1,3-dihydroisobenzofuran-5-yl)piperazin-1-yl)methyl)-1,3-dihydro-2H-imidazol-2-one], on hERG channels, the inhibition at 1 µM came out at 8.4%. Moreover, the IC50 on hROMK (human Kir1.1) was found to be 42 nM.
